± gives the expanded uncertainty stated by the source.
Conditions: Liquid, Closed cell (Static) method

O [water]
vapor or sublimation pressure (276.1 K): 0.753 ± 0.011 kPa
vapor or sublimation pressure (276.16 K): 0.76 ± 0.011 kPa
vapor or sublimation pressure (278.47 K): 0.894 ± 0.013 kPa
vapor or sublimation pressure (280.8 K): 1.05 ± 0.015 kPa
vapor or sublimation pressure (283.11 K): 1.223 ± 0.02 kPa
vapor or sublimation pressure (285.49 K): 1.43 ± 0.021 kPa
vapor or sublimation pressure (285.52 K): 1.44 ± 0.021 kPa
vapor or sublimation pressure (288.24 K): 1.708 ± 0.022 kPa
vapor or sublimation pressure (290.65 K): 1.994 ± 0.026 kPa
vapor or sublimation pressure (290.71 K): 2.01 ± 0.026 kPa
vapor or sublimation pressure (293.51 K): 2.398 ± 0.03 kPa
vapor or sublimation pressure (295.49 K): 2.697 ± 0.034 kPa
vapor or sublimation pressure (295.58 K): 2.707 ± 0.034 kPa
vapor or sublimation pressure (298.22 K): 3.182 ± 0.038 kPa
vapor or sublimation pressure (298.33 K): 3.202 ± 0.039 kPa
vapor or sublimation pressure (300.72 K): 3.703 ± 0.045 kPa
vapor or sublimation pressure (300.8 K): 3.708 ± 0.045 kPa
vapor or sublimation pressure (302.99 K): 4.213 ± 0.051 kPa
vapor or sublimation pressure (305.57 K): 4.882 ± 0.057 kPa
vapor or sublimation pressure (305.6 K): 4.869 ± 0.057 kPa
vapor or sublimation pressure (307.8 K): 5.499 ± 0.065 kPa
vapor or sublimation pressure (310.42 K): 6.36 ± 0.074 kPa
vapor or sublimation pressure (310.49 K): 6.404 ± 0.074 kPa
vapor or sublimation pressure (312.73 K): 7.192 ± 0.083 kPa
vapor or sublimation pressure (315.28 K): 8.236 ± 0.095 kPa
vapor or sublimation pressure (315.37 K): 8.313 ± 0.096 kPa
vapor or sublimation pressure (317.67 K): 9.333 ± 0.11 kPa
vapor or sublimation pressure (320.11 K): 10.56 ± 0.12 kPa
vapor or sublimation pressure (320.2 K): 10.63 ± 0.12 kPa
vapor or sublimation pressure (322.5 K): 11.93 ± 0.14 kPa
vapor or sublimation pressure (322.54 K): 11.99 ± 0.14 kPa
vapor or sublimation pressure (325.01 K): 13.51 ± 0.15 kPa

Source: the NIST ThermoML archive (doi:10.1016/j.jct.2015.07.028)
